The values that follow come from ChEMBL document CHEMBL3988442, “University of Dundee, Small-Polar-MMV Screening Library” (2021).

As usually defined, the IC50 is the concentration at which inhibition is half-maximal.

For the test, the target named is T1, Ubiquitin-activating enzyme e1, putative (Leishmania donovani (strain BPK282A1), UniProt E9BSI1).
T1 sequence (E9BSI1 whole entry): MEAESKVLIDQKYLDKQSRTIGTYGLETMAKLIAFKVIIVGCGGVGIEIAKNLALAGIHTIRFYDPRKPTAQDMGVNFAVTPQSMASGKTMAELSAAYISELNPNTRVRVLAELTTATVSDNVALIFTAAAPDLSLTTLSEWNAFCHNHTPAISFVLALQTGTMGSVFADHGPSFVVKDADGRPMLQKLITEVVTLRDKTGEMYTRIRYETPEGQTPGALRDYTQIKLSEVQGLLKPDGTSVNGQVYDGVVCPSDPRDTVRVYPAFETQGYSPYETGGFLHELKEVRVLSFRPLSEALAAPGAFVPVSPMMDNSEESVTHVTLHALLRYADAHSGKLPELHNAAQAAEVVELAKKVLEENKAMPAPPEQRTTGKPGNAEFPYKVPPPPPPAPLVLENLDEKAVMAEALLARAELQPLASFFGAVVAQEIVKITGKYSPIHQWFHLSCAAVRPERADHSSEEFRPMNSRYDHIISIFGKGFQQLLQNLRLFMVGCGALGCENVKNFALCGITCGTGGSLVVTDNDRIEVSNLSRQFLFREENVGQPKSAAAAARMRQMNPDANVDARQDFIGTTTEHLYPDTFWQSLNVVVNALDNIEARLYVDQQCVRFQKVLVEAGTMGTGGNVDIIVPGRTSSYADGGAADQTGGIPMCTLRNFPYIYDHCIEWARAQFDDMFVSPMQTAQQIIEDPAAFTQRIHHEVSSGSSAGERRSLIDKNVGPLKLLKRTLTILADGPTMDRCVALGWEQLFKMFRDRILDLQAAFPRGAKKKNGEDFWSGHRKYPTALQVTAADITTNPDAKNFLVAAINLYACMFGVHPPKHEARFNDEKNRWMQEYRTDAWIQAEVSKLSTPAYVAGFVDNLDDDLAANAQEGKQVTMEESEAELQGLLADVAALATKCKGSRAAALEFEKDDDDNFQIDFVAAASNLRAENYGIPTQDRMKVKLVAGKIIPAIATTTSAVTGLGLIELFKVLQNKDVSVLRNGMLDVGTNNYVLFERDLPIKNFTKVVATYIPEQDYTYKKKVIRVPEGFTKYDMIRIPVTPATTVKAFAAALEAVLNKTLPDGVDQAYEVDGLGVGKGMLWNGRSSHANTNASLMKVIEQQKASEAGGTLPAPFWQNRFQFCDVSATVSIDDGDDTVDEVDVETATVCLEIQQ
The test is described as follows: Leishmania donovani Ubiquitin Activating Enzyme (LdE1). The format is functional.
With `CC(C)N1CCC(Cc2cc(-c3cccc(C(=O)O)c3)ncn2)CC1`, the 50% inhibitory concentration (IC50) was more than 100 µM.

`O=C(CCS(=O)(=O)C1CCCC1)NCc1ccccc1Cn1cncn1` gave a 50% inhibitory concentration (IC50) of more than 100 µM.

As to `COc1ccc(CNCc2ccnc(N3CCCC3)c2)c(OC)c1`, the IC50 was more than 100 µM.

Turning to `c1csc(-c2noc(CNCCn3cccn3)n2)c1`, the IC50 was more than 100 µM.

The compound `Cc1nc(C)n(CC2CCCN(Cc3ncc(C(C)(C)C)o3)C2)n1` (stereo not drawn) showed an IC50 of more than 100 µM.

For `CC(OCC1CC1)C(=O)N1CCCN(Cc2nccn2C)CC1` (stereo not drawn), the IC50 was more than 100 µM.

Take `CC(C)C(NC(=O)NCCNc1ccccn1)c1cccs1` (stereo not drawn): the IC50 is more than 100 µM.

As for `COc1ccc(-c2noc(CNC(C)Cn3cccn3)n2)c(OC)c1` (stereo not drawn), the concentration for half-maximal inhibition (IC50) was more than 100 µM.

As for `CC(Cn1cccn1)NCc1nc(-c2ccco2)no1` (stereo not drawn), the IC50 was more than 100 µM.

The compound `CC(OCC1CC1)C(=O)N1CCCN(Cc2nccn2C(C)C)CC1` (stereo not drawn) showed a half-inhibitory concentration (IC50) of more than 100 µM.

`COCCC(=O)N1C[C@@H]2COC[C@]2(COCc2cccnc2)C1`: the IC50 was more than 100 µM.

For `Cc1nc(C)n(CC2CCCCN2Cc2cnc(C)s2)n1` (stereo not drawn), the IC50 was more than 100 µM.

Compound `CC(O)CN1CCN(C(=O)c2ccc(N3CCCC3)nn2)CC1` (stereo not drawn) showed an IC50 of more than 100 µM.

On to `CCn1nc2c(cc1=O)CN(Cc1nnc(C3CC3)o1)CC2`, for which the IC50 is more than 100 µM.

Compound `CCCN1CCC[C@]2(CCC(=O)N2Cc2ccncc2)[C@H]1CC` had an IC50 of more than 100 µM.

Take `O=C(CCNC(=O)C1CCCC1)NCc1cccnc1-n1cncn1`: the IC50 is more than 100 µM.

In turn, `CC(C)C(NC(=O)NCCNc1cnccn1)c1cccs1` (stereo not drawn) showed an IC50 of more than 100 µM.

Regarding `Cc1ccoc1C(=O)N1C[C@@H]2COC[C@]2(COCc2cccnc2)C1`, the half-maximal inhibitory concentration (IC50) was more than 100 µM.

`CC(C)n1nc2c(cc1=O)CN(Cc1nnc(C3CC3)o1)CC2` showed an IC50 of more than 100 µM.

Regarding `CC[C@H]1NCCC[C@]12CCC(=O)N2Cc1ccncc1`, the IC50 is more than 100 µM.

Regarding `Cc1nc(C)n(CC2CCCCN2Cc2ncc(C(C)(C)C)o2)n1` (stereo not drawn), the IC50 is more than 100 µM.

As to `Cc1nc(C(C)(C)C)sc1C(=O)NCCNc1ncccc1C#N`, the IC50 was more than 100 µM.

With `Cc1cc(C(=O)N2C[C@@H]3COC[C@]3(COCc3cccnc3)C2)no1`, the IC50 is more than 100 µM.

`CC(O)CN1CCN(C(=O)c2ccc(N(C)C)nn2)CC1` (stereo not drawn) showed a half-inhibitory concentration (IC50) of more than 100 µM.

On to `CCCn1nc2c(cc1=O)CN(Cc1nnc(C3CC3)o1)CC2`, for which the IC50 was more than 100 µM.

`O=C(NCc1ccccc1Cn1cncn1)C1CC1` had an IC50 of more than 100 µM.

Turning to `O=C(CC1CCCO1)NCc1ccccc1Cn1cncn1` (stereo not drawn), the IC50 is more than 100 µM.

For the compound `CCCc1nc(C)c(C(=O)NCCNc2ncccc2C#N)s1`, the IC50 is more than 100 µM.

In the case of `CC(C)c1nc2n(n1)CC(NCc1ncc(C(C)(C)C)o1)CC2` (stereo not drawn), the IC50 was more than 100 µM.

Compound `CC(C)(C)c1cnc(CN2CCC[C@H]2CO)o1` showed an IC50 of more than 100 µM.

On to `CC(C)c1nc2n(n1)CC(NCc1nnnn1C1CC1)CC2` (stereo not drawn), for which the IC50 was more than 100 µM.

Compound `CCc1nc(C)c(C(=O)NCCNc2ncccc2C#N)s1` gave an IC50 of more than 100 µM.

On to `CC[C@H]1N(C)CCC[C@]12CCC(=O)N2Cc1ccncc1`, for which the IC50 is more than 100 µM.

Compound `CC(Cn1cccn1)NCc1nc(-c2cccc(Cl)c2)no1` (stereo not drawn) showed an IC50 of more than 100 µM.

Consider `CSC(C)C(=O)N1CCCN(Cc2nccn2C)CC1` (stereo not drawn), for which the 50% inhibitory concentration (IC50) is more than 100 µM.

`COCCNc1ccc(CNC(=O)Nc2cn[nH]c2)cc1` had an IC50 of more than 100 µM.

`O=C(CCNC(=O)C1CCCC1)NCc1ccccc1Cn1cncn1`: the half-maximal inhibitory concentration (IC50) was more than 100 µM.

For `Cn1nc2c(cc1=O)CN(Cc1coc(-c3ccccc3)n1)CC2`, the IC50 was more than 100 µM.

In turn, `CC[C@H]1N(CC2CCC2)CCC[C@]12CCC(=O)N2Cc1ccncc1` showed a 50% inhibitory concentration (IC50) of more than 100 µM.

`Cn1ccnc1CN1CCCN(C(=O)COCC2CC2)CC1` showed an IC50 of more than 100 µM.

Take `COc1ccc(CNCc2ccnc(N3CCCCC3)c2)cc1OC`: the IC50 is more than 100 µM.

`CC(NC(=O)NCCNc1ncccn1)c1cccs1` (stereo not drawn) showed an IC50 of more than 100 µM.

As for `COCc1nc2cc(NCc3csc(C)n3)ccc2o1`, the IC50 was more than 100 µM.

As for `Cc1ccc(C(=O)N2C[C@@H]3COC[C@]3(COCc3cccnc3)C2)cn1`, the IC50 is more than 100 µM.

`COc1cc(CNCc2ccnc(N3CCCC3)c2)cc(OC)c1` gave a half-inhibitory concentration (IC50) of more than 100 µM.

With `CCC(O)CN1CCN(C(=O)c2ccc(N(C)C)nn2)CC1` (stereo not drawn), the IC50 was more than 100 µM.

The compound `CS(=O)(=O)c1ccc(CNC(=O)Nc2cn[nH]c2)cc1` showed an IC50 of more than 100 µM.

As for `CNS(=O)(=O)Cc1ccc(CNC(=O)Nc2cccnc2)cc1`, the IC50 is more than 100 µM.

`CC(C)C(NC(=O)NCCNc1ncccn1)c1cccs1` (stereo not drawn): the half-inhibitory concentration (IC50) is more than 100 µM.

The compound `O=C(c1ncccn1)N1C[C@@H]2COC[C@]2(COCc2cccnc2)C1` gave an IC50 of more than 100 µM.

Turning to `CCC1CCCCN1Cc1ncc(C(C)(C)C)o1` (stereo not drawn), the IC50 was more than 100 µM.

For `CC(Cn1cccn1)NCCCc1nc(-c2cccs2)no1` (stereo not drawn), the IC50 is more than 100 µM.

Turning to `CC[C@@H]1N(CC2CCC2)CCC[C@]12CCC(=O)N2Cc1ccncc1`, the IC50 is more than 100 µM.

In the case of `CCn1nc2c(cc1=O)CN(Cc1coc(-c3ccccc3)n1)CC2`, the IC50 was more than 100 µM.

`Cc1ccccc1C(=O)N1C[C@@H]2COC[C@]2(COCc2cccnc2)C1`: the IC50 is more than 100 µM.

`Cc1nc(C)n(CC2CCCCN2Cc2nnc(C3CC3)o2)n1` (stereo not drawn) showed an IC50 of more than 100 µM.

`O=C(NCc1ccccc1Cn1cncn1)C1CCCC1`: the IC50 is more than 100 µM.

On to `Cc1cnn(CC(C)NCc2nc(-c3cccs3)no2)c1` (stereo not drawn), for which the IC50 is more than 100 µM.

Compound `CC(C)c1nc2n(n1)CC(NCc1nc(C3CC3)no1)CC2` (stereo not drawn) gave an IC50 of more than 100 µM.

For `O=C(CCC1CCCO1)NCc1ccccc1Cn1cncn1` (stereo not drawn), the IC50 was more than 100 µM.

Regarding `CC(C)c1nc2n(n1)CC(NCc1nnc(C3CC3)o1)CC2` (stereo not drawn), the IC50 is more than 100 µM.

Take `CNS(=O)(=O)Cc1cccc(CNC(=O)Nc2cn[nH]c2)c1`: the IC50 is more than 100 µM.

For the compound `CN(C)c1ccc(C(=O)N2CCN(CC(C)(C)O)CC2)nn1`, the IC50 was more than 100 µM.

The compound `CC(Cn1cccn1)NCc1nc(-c2ccccn2)no1` (stereo not drawn) showed an IC50 of more than 100 µM.

`CC(C)N1CCC(Cc2cc(-c3cccc(C(=O)O)c3)ncn2)C1` (stereo not drawn) gave an IC50 of more than 100 µM.

On to `CCc1nc2n(n1)CC(NCc1nnc(C(C)C)o1)CC2` (stereo not drawn), for which the IC50 is more than 100 µM.

Take `O=C(Cc1ccsc1)N1C[C@@H]2COC[C@]2(COCc2cccnc2)C1`: the IC50 is more than 100 µM.

The compound `COc1ccc(CNCc2ccc(N3CCCCC3)nc2)cc1OC` showed an IC50 of more than 100 µM.

`O=C(NCc1ccccc1Cn1cncn1)C1CCC1` had a concentration for half-maximal inhibition (IC50) of more than 100 µM.

Take `Cc1ccc(C(=O)NCCNc2ncccc2C#N)c(=O)[nH]1`: the IC50 is more than 100 µM.

In the case of `Cc1nc(C(=O)N2C[C@@H]3COC[C@]3(COCc3cccnc3)C2)cs1`, the IC50 is more than 100 µM.

In turn, `Cc1nc(C)c(C(=O)NCCNc2ncccc2C#N)s1` had an IC50 of more than 100 µM.

For the compound `CC(C)c1nc2n(n1)CC(NCc1nnc(-c3ccco3)o1)CC2` (stereo not drawn), the IC50 is more than 100 µM.

On to `Cc1nc(C(C)C)sc1C(=O)NCCNc1ncccc1C#N`, for which the IC50 is more than 100 µM.

On to `CC(Oc1ccccc1)C(=O)N1CCCN(Cc2nccn2C)CC1` (stereo not drawn), for which the IC50 was more than 100 µM.

For `CC(C)N1CCC(Cc2cnc(-c3cccc(C(=O)O)c3)cn2)C1` (stereo not drawn), the IC50 was more than 100 µM.

Consider `CC(C)C(NC(=O)Nc1ccccn1)c1cccs1` (stereo not drawn), for which the IC50 was more than 100 µM.

The compound `Cc1cc(C)n(CC2CCCN2Cc2ncc(C(C)(C)C)o2)n1` (stereo not drawn) gave an IC50 of more than 100 µM.
